Earlier results as cited in US20050209190A1, “Camptothecin complexes” (priority 2000, published 2005).

Legend:
[1] = system: human colon cancer xenografts; conditions: mouse, in vivo
[2] = system: nontumorigenic human cells; conditions: in vitro
tumorigenic human cells = conditions: in vitro
[3] = administered intravenously; studies abandoned

Which “anticancer activity against human colon cancer xenografts” value [1] does the source give for CC[C@@]1(O)C(=O)OCc2c1cc1n(c2=O)Cc2cc3cc4c(cc3nc2-1)OCO4 [10,11 MD, 10,11-Methylendioxy-20(S)-Camptothecin] here?
The value was “high anticancer activity”.

Which “effect on nontumorigenic cells” value [2] does the source give for CC[C@@]1(O)C(=O)OCc2c1cc1n(c2=O)Cc2cc3ccccc3nc2-1 [CPT, 20(S)-camptothecin] here?
Its value is “cytostatic”.

And the “effect on tumorigenic cells” value (tumorigenic human cells)?
Its value is “cytotoxic”.

And the solubility in water?
Its solubility in water is “insoluble in water”.

Which “growth of human tumor xenografts” value (human tumor xenografts; immunodeficient nude mice) does the source give for CC[C@@]1(O)C(=O)OCc2c1cc1n(c2=O)Cc2cc3c([N+](=O)[O-])cccc3nc2-1 [Example 9NC, 9-nitrocamptothecin] here?
Its value is “inhibited the growth”.

What about the “activity against human tumor xenograft models” value (human tumor xenografts; mouse, in vivo) of the same molecule?
The value was “high activity”.

And the “regression of human tumors established as xenografts” value (human tumor xenografts; nude mice)?
Its value is “induced regression”.

With CC[C@@]1(O)C(=O)OCc2c1cc1n(c2=O)Cc2cc3c(N)cccc3nc2-1 [Example 9AC, 9-Amino-20(S)-Camptothecin] as the molecule, how does the “anticancer activity against human colon cancer xenografts” value [1] read?
The value was “high anticancer activity”.

What does the source list for CC[C@@](O)(C(=O)[O-])c1cc2n(c(=O)c1CO)Cc1cc3ccccc3nc1-2.[Na+] [CPT Na+]?
potency in clinical trials [3]: low potency; toxicity in clinical trials [3]: high toxicity
